What was measured:
Assay in all cases: KINOMEscan competition binding
Settings in all cases: compound 10.0 µM
DYRK1A (human) = DYRK1A (human) (UniProt Q13627)
CDK13 (human) = CDK13 (human) (UniProt Q14004)
ERN1 (human) = ERN1 (human) (UniProt O75460)
CDKL3 (human) = CDKL3 (human) (UniProt Q8IVW4)
SBK1 (human) = SBK1 (human) (UniProt Q52WX2)
NIM1 (human) = NIM1 (human) (UniProt Q8IY84)
ICK (human) = ICK (human) (UniProt Q9UPZ9)
SGK3 (human) = SGK3 (human) (UniProt Q96BR1)
PIK3C2G (human) = PIK3C2G (human) (UniProt O75747)
STK39 (human) = STK39 (human) (UniProt Q9UEW8)
PIP5K1C (human) = PIP5K1C (human) (UniProt O60331)
PIK3CG (human) = PIK3CG (human) (UniProt P48736)
GRK7 (human) = GRK7 (human) (UniProt Q8WTQ7)
CRK2 (P.falciparum) = CRK2 (P.falciparum) (UniProt P61075)
NEK3 (human) = NEK3 (human) (UniProt P51956)
CDK4 CCND3 (human) = CDK4 CCND3 (human) (UniProt P11802+P30281)
HIPK4 (human) = HIPK4 (human) (UniProt Q8NE63)
KIT (human) = KIT (human) (UniProt P10721)
RPS6KB1 (human) = RPS6KB1 (human) (UniProt P23443)
DSTYK (human) = DSTYK (human) (UniProt Q6XUX3)
[1] = tested on: PIK3CA (human), P42336 [Q546K]
MAST1 (human) = MAST1 (human) (UniProt Q9Y2H9)
MAP3K13 (human) = MAP3K13 (human) (UniProt O43283)
OXSR1 (human) = OXSR1 (human) (UniProt O95747)
PIP4K2C (human) = PIP4K2C (human) (UniProt Q8TBX8)
DYRK2 (human) = DYRK2 (human) (UniProt Q92630)
CPK1 (P.falciparum) = tested on: CPK1 (P.falciparum)
PRKCI (human) = PRKCI (human) (UniProt P41743)
BRAF (human) = BRAF (human) (UniProt P15056)
ERBB3 (human) = ERBB3 (human) (UniProt P21860)
EGFR (human) = EGFR (human) (UniProt P00533)
DDR1 (human) = DDR1 (human) (UniProt Q08345)
TIE1 (human) = TIE1 (human) (UniProt P35590)
[2] = tested on: EGFR (human), P00533 [G719S]
[3] = tested on: FLT3 (human), P36888 [K663Q]
YSK4 (human) = YSK4 (human) (UniProt Q56UN5)
[4] = tested on: EGFR (human), P00533 [746-750 del]

Sequence of PIP4K2C (human) (Q8TBX8 whole entry, looked up): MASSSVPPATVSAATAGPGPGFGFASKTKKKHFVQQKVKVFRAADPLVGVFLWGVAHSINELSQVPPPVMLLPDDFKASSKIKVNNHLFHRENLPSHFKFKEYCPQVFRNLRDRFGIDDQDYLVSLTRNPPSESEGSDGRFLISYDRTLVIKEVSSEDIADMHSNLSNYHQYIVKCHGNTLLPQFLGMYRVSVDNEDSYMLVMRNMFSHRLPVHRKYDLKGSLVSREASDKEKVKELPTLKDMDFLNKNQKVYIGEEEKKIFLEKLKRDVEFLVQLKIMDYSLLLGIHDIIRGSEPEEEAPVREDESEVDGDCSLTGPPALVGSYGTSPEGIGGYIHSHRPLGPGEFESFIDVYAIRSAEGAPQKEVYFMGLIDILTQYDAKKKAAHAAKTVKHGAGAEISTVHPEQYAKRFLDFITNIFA
Sequence of GRK7 (human) (Q8WTQ7 whole entry, looked up): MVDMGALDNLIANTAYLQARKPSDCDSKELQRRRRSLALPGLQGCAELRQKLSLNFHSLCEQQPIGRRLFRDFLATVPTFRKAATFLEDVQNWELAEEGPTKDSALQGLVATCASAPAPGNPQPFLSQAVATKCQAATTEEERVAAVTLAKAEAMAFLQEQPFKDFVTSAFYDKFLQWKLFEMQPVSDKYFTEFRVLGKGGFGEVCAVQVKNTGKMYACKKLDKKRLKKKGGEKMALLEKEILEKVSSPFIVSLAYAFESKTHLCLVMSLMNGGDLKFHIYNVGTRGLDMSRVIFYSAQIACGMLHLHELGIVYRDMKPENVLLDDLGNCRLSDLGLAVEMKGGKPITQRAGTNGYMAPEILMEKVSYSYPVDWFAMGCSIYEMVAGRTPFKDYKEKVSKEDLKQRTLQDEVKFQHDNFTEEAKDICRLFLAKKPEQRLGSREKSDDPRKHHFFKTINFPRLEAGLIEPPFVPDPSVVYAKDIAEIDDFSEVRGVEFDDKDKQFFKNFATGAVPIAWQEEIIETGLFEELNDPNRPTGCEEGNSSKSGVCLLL
Sequence of SBK1 (human) (Q52WX2 whole entry, looked up): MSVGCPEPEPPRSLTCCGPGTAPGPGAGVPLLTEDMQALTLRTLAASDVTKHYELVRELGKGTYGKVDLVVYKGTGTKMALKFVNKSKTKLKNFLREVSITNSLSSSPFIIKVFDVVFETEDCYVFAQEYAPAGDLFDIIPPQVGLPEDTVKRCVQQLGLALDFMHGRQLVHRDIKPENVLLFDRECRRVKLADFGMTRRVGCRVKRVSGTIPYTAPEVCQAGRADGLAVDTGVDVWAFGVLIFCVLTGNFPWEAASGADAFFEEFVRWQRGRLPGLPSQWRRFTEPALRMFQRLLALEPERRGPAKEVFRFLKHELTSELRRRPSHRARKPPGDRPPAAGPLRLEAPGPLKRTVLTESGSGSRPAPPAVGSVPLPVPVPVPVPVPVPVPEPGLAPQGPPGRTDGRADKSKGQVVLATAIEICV
Sequence of ERN1 (human) (O75460 whole entry, looked up): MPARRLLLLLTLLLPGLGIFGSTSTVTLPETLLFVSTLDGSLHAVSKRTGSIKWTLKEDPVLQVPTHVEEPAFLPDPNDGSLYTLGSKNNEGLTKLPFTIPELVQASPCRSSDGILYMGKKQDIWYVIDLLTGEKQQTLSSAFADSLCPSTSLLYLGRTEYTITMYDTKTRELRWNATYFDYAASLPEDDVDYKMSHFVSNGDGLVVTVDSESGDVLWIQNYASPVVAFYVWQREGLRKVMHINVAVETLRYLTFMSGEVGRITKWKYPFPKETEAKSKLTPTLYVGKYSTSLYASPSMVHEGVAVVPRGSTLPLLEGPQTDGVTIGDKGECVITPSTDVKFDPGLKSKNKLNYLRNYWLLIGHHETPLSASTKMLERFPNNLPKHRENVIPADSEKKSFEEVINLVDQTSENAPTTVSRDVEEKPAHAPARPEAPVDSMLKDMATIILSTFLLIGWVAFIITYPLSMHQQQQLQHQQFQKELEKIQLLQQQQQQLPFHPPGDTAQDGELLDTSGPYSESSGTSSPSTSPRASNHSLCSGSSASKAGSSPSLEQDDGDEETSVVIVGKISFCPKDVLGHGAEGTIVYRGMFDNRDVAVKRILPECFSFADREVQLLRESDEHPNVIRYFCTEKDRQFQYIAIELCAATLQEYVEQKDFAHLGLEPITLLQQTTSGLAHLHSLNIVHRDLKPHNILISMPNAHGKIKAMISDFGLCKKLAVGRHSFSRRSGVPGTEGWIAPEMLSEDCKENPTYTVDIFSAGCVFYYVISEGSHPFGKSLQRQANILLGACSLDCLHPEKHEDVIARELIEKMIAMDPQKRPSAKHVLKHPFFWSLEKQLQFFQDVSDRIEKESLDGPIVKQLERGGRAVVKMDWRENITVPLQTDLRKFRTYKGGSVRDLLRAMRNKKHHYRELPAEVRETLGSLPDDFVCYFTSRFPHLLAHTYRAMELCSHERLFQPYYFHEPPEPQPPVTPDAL
Sequence of OXSR1 (human) (O95747 whole entry, looked up): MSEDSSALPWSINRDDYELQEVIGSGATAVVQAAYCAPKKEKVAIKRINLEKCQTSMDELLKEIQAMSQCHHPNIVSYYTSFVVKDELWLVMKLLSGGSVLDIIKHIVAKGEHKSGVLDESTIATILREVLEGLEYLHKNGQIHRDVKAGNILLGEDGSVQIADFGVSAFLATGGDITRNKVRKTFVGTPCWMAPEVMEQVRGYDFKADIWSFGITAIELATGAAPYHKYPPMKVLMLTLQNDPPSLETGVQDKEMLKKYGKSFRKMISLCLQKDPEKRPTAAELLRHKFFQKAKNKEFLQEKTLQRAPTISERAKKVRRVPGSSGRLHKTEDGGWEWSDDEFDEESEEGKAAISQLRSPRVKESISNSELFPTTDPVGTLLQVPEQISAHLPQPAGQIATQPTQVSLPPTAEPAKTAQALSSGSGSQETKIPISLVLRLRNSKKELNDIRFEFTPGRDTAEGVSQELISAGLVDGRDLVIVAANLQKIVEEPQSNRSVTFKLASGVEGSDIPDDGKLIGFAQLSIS
Sequence of SGK3 (human) (Q96BR1 whole entry, looked up): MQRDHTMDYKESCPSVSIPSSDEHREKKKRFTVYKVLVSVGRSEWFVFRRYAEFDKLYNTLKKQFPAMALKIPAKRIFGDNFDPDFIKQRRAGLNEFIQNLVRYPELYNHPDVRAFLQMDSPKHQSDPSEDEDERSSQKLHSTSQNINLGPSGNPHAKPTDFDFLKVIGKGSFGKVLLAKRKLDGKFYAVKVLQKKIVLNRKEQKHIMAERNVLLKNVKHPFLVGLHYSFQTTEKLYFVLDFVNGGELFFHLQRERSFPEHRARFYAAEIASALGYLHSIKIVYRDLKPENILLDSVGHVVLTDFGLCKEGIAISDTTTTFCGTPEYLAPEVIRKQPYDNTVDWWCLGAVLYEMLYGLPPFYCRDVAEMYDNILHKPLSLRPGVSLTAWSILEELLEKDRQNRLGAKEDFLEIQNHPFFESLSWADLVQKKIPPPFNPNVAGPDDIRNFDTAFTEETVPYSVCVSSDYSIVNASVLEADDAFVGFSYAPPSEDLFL
Sequence of HIPK4 (human) (Q8NE63 whole entry, looked up): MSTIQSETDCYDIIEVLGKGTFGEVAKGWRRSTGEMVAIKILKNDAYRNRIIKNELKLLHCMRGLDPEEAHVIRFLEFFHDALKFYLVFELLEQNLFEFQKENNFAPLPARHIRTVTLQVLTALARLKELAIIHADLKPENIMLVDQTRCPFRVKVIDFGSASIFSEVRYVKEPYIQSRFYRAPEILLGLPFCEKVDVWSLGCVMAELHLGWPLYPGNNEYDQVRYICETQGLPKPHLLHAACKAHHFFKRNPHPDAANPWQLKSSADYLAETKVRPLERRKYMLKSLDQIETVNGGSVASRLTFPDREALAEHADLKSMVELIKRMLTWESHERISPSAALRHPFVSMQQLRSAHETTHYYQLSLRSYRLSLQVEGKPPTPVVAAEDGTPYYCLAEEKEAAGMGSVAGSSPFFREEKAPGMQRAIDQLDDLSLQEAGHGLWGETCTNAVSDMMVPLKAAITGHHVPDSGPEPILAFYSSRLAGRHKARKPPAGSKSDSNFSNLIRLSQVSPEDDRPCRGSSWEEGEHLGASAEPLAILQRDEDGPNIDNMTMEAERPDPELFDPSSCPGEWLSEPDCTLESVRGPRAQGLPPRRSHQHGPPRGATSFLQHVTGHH
Sequence of CDKL3 (human) (Q8IVW4 whole entry, looked up): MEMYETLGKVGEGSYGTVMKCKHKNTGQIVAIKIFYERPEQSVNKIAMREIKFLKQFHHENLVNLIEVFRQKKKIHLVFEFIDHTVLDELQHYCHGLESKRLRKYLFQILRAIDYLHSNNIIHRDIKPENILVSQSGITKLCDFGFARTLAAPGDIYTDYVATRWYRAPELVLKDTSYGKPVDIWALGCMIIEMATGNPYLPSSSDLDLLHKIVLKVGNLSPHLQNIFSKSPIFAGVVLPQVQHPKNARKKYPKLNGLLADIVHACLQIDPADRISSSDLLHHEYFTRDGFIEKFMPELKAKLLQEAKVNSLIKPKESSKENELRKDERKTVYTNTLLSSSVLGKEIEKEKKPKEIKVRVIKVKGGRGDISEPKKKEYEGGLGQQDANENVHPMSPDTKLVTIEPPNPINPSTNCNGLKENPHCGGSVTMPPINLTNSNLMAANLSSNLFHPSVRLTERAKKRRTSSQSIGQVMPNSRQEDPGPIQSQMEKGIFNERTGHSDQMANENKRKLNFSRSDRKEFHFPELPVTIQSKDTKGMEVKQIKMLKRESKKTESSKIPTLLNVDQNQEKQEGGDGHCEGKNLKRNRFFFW
Sequence of CRK2 (P.falciparum) (P61075 whole entry, looked up): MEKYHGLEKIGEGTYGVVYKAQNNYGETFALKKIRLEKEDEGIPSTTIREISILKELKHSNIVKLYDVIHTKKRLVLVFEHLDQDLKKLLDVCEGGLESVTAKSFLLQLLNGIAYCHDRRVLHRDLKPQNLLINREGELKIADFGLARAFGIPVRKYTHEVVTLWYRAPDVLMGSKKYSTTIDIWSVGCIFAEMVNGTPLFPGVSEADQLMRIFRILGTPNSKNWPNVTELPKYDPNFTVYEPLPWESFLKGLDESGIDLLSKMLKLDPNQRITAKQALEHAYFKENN

## CCOc1cc2ncc(C#N)c(Nc3ccc(OCc4ccccn4)c(Cl)c3)c2cc1NC(=O)/C=C/CN(C)C
DYRK1A (human)
  kinase still bound, per cent of control: 99%
CDK13 (human)
  kinase still bound, per cent of control: 100%
ERN1 (human)
  kinase still bound, per cent of control: 80%
CDKL3 (human)
  kinase still bound, per cent of control: 100%
SBK1 (human)
  kinase still bound, per cent of control: 100%
NIM1 (human)
  kinase still bound, per cent of control: 90%
ICK (human)
  kinase still bound, per cent of control: 100%
SGK3 (human)
  kinase still bound, per cent of control: 100%
PIK3C2G (human)
  kinase still bound, per cent of control: 100%
STK39 (human)
  kinase still bound, per cent of control: 84%
PIP5K1C (human)
  kinase still bound, per cent of control: 100%
PIK3CG (human)
  kinase still bound, per cent of control: 91%
GRK7 (human)
  kinase still bound, per cent of control: 100%
CRK2 (P.falciparum)
  kinase still bound, per cent of control: 100%
NEK3 (human)
  kinase still bound, per cent of control: 41%
CDK4 CCND3 (human)
  kinase still bound, per cent of control: 78%
HIPK4 (human)
  kinase still bound, per cent of control: 42%
KIT (human)
  kinase still bound, per cent of control: 80%
RPS6KB1 (human)
  kinase still bound, per cent of control: 100%
DSTYK (human)
  kinase still bound, per cent of control: 69%
[1]
  kinase still bound, per cent of control: 100%
MAST1 (human)
  kinase still bound, per cent of control: 100%
MAP3K13 (human)
  kinase still bound, per cent of control: 86%
OXSR1 (human)
  kinase still bound, per cent of control: 54%
PIP4K2C (human)
  kinase still bound, per cent of control: 100%
DYRK2 (human)
  kinase still bound, per cent of control: 64%
CPK1 (P.falciparum)
  kinase still bound, per cent of control: 88%
PRKCI (human)
  kinase still bound, per cent of control: 90%
BRAF (human)
  kinase still bound, per cent of control: 95%
ERBB3 (human)
  kinase still bound, per cent of control: 0.1%

## Nc1ccc(-c2ccc3ncc4ccc(=O)n(-c5cccc(C(F)(F)F)c5)c4c3c2)cn1
EGFR (human)
  kinase still bound, per cent of control: 100%
DYRK1A (human)
  kinase still bound, per cent of control: 75%
CDK13 (human)
  kinase still bound, per cent of control: 100%
ERN1 (human)
  kinase still bound, per cent of control: 100%
CDKL3 (human)
  kinase still bound, per cent of control: 100%
SBK1 (human)
  kinase still bound, per cent of control: 100%
NIM1 (human)
  kinase still bound, per cent of control: 100%
ICK (human)
  kinase still bound, per cent of control: 79%
SGK3 (human)
  kinase still bound, per cent of control: 100%
STK39 (human)
  kinase still bound, per cent of control: 100%
PIP5K1C (human)
  kinase still bound, per cent of control: 51%
GRK7 (human)
  kinase still bound, per cent of control: 60%
CRK2 (P.falciparum)
  kinase still bound, per cent of control: 100%
NEK3 (human)
  kinase still bound, per cent of control: 95%
CDK4 CCND3 (human)
  kinase still bound, per cent of control: 90%
HIPK4 (human)
  kinase still bound, per cent of control: 44%
KIT (human)
  kinase still bound, per cent of control: 55%
RPS6KB1 (human)
  kinase still bound, per cent of control: 86%
DDR1 (human)
  kinase still bound, per cent of control: 100%
DSTYK (human)
  kinase still bound, per cent of control: 88%
MAST1 (human)
  kinase still bound, per cent of control: 100%
TIE1 (human)
  kinase still bound, per cent of control: 100%
MAP3K13 (human)
  kinase still bound, per cent of control: 100%
[2]
  kinase still bound, per cent of control: 88%
[3]
  kinase still bound, per cent of control: 18%
YSK4 (human)
  kinase still bound, per cent of control: 37%
OXSR1 (human)
  kinase still bound, per cent of control: 100%
PIP4K2C (human)
  kinase still bound, per cent of control: 21%
[4]
  kinase still bound, per cent of control: 92%
DYRK2 (human)
  kinase still bound, per cent of control: 88%
CPK1 (P.falciparum)
  kinase still bound, per cent of control: 52%
PRKCI (human)
  kinase still bound, per cent of control: 100%
BRAF (human)
  kinase still bound, per cent of control: 73%
ERBB3 (human)
  kinase still bound, per cent of control: 50%

Reference: the kinase profiling compilation of Christmann-Franck et al. (2016)
